Tests used:
1W1K-specific Tfh cells = assay: 1W1K-specific CD4+ T cell and Tfh cell response in draining lymph nodes after immunisation (pMHCII tetramer flow cytometry); assay type: in vivo, C57Bl/6 mice; details: for 1W1K-specific Tfh cells in the dLN / amount of 1W1K-specific CD4+ T cells / total number of CD4+ T cells in the dLN: TLR agonist added to IFA; for 1W1K-specific Tfh cells in the dLN: 40 μg 1W1K s.c., 9 days, FIG. 1A; for amount of 1W1K-specific CD4+ T cells / total number of CD4+ T cells in the dLN: 1W1K s.c., peak of primary response, versus IFA only
Experimental: (§1) Mice were either i.p. injected or immunized s.c. at the base of tail with 40 μg of peptide 1W1K, 100 μg of OVA, 200 μg of Ea-FITC in the indicated adjuvant with or without soluble TLR agonist, in a final volume of 200 µL. To target moDC, mice were immunised s.c. with 1.2×1010 beads (which correspond to 40 μg Ea52-68, 1W1K or 100 μg OVA) in indicated adjuvant with or without soluble TLR agonist. At indicated times post-immunisation, spleen or dLN (inguinal and periaortic) were collected and cells were stained for flow cytometry analysis.
To block IL-6 signalling, i.p. injections of 100 μg D7715A7 mAb (anti-IL-6R[…], eBioscience) or Rat IgG2b isotype control were performed at day −1 and +4 post-immunisation. To deplete mice of monocytes, i.v. injections of 250 μL of clodronate liposomes or control PBS liposomes (clodronateliposome.com) were performed from day −1 every second day.
For population analysis, dLN were harvested from mice and single cell suspensions were prepared in PBS with 2% FCS, 5 mM EDTA. For DC analysis, lymphoid organs were dissociated using 125 μg/mL LiberaseTL (Roche) and 40 μg/mL DNAase I (Sigma-Aldrich) at 37° C. for 20 min. 1×10^8 cells/ml were labelled at 4° C. for 45 min with mAbs: Reagents from BD Pharmingen [AlexaFluor488-K112-91 (anti-Bcl-6); PE-M1/70 (anti-CD11b), PE-281-2 (anti-CD138); Cy5PE-M1/70 (anti-CD11b); APC-2G8 (anti-CXCR5); V500-500A2 (anti-CD3); Pacific Blue-53-6.7 (anti-CD8α); Biotin-Jo2 (anti-CD95); Biotin-2G8 (anti-CXCR5)], Reagents from eBioscience [FITC-eBio1D3 (anti-CD19), FITC-RA3-6B2 (anti-B220), FITC-RM4-5 (anti-CD4); PE-MAR-1 (anti-FceR1), PE-205yekta (anti-CD205), PE-2E7 (anti-CD 103), PE-MP5-20F3 (anti-IL-6); Cy5PE-RM4-5 (anti-CD4); Cy7PE-N418 (anti-CD11c), Cy7PE-53-6.7 (anti-CD8α); Cy5.5PE-anti-CD19, Cy5.5PE-HK1.4 (anti-Ly-6c); APC-N418; AlexaFluor647 anti-GL-7; AlexaFluor700-MEL-14 (anti-CD62L), AlexaFluor700-eBio1D3, AlexaFluor700-IM7 (anti-CD44); APCeFluor780-IM7, APCeFluor780-BM8 (anti-F4/80), APCeFluor780-RA3-6B2; eFluor450-11-26c (anti-IgD), eFluor450-MEL-14; biotin-Y-Ae], reagent from R&D PE-475301(anti-CCR2). Before data collection […] propidium iodide (PI) was added to samples. 1W1K-IAb tetramer was obtained from NIH Tetramer core facility. For IL-6 intracellular staining cell suspensions were incubated for 4 hr at 37° C. in the presence of 3 μg/mL Golgi Plug (BD Bioscience) and 4 μM Monensin, fixed and permabilised using BD Fixation/Permeabilisation kit. Before permeabilisation cells were stained with Fixable Viability Dye eFluor450 or eFluor660 (eBioscience). Data were collected on a BD LSRII™ (BD Biosciences) and analysed using FlowJo software (Tree Star).
6-8-wk-old C57Bl/6 mice were irradiated (0.85 Gy) the day before i.v. injection of 1×10^7 T cell-depleted BM cells that consisted of a mix of 70% from CD11c-DTR or JHT supplemented with 30% from TLR9KO, Myd88KO, TRIFKO, IL-6K0 or wt CD45.1 C57Bl/6 mice. After 8 wk, the chimeras with CD11c-DTR BM were i.p. treated every second day with 4 ng/g body weight DTx (Sigma-Aldrich) and 1 day before immunisation with 20 ng/mouse s.c. Treated animals were then s.c. immunised either with 1W1K or OVA as described above.
The combination of adjuvant to a peptide favours robust T-dependent B cell immunity. To test whether addition of TLR agonists to other vaccine adjuvant could have a synergistic effect on the induced immune response, we examined the I-Ab restricted murine CD4+ T cell response to a peptide variant ([…], called 1W1K peptide hereafter, SEQ ID NO:1) of the I-E alpha chain immunodominant peptide 52-68 (Ea52-68) in C57Bl/6 mice. We followed the 1W1K-specific CD4+ T cells with the corresponding pMHCII tetramer in the draining lymph nodes (dLN) after sub-cutaneous (s.c.) immunisation in Incomplete Freund's adjuvant (IFA). At the peak of the effector CD4+ T cell response, we detected the CD44+ and pMHCII tetramer+1W1K-specific CD4+ T cells in the dLN (data not shown). […]

OVA-specific B cells = assay: OVA-specific B cell response in dLN after immunisation (flow cytometry); assay type: in vivo, C57Bl/6 mice; details: TLR agonist added to IFA; 100 μg OVA s.c.; 14 days; FIG. 2A
Experimental: as §1
For population analysis, dLN were harvested from mice and single cell suspensions were prepared in PBS with 2% FCS, 5 mM EDTA. For DC analysis, lymphoid organs were dissociated using 125 μg/mL LiberaseTL (Roche) and 40 μg/mL DNAase I (Sigma-Aldrich) at 37° C. for 20 min. […] Data were collected on a BD LSRII™ (BD Biosciences) and analysed using FlowJo software (Tree Star).
We hypothesized that an increase in the CD4+ T cell help and specifically an increase of the Tfh cells, the critical regulators of B cell responses, could result in a greater B cell response to the Ag after addition of TLR agonist to another adjuvant. The murine B cell response to ovalbumin (OVA) in wt animals is a valuable immunisation model that can be monitored via the polyclonal Ig repertoires. OVA-specific B cells can be detected by flow cytometry as CD3-IgD− cells that bind specifically to A1exa488-conjugated OVA (OVA+) (data not shown). […] Using this strategy, we determined if addition of TLR agonist to IFA impacts OVA-specific B cell responses in vivo. […]

OVA-specific IgG = OVA-specific IgG in serum by ELISA after immunisation; assay type: in vivo, C57Bl/6 mice
IL-6 = IL-6 in serum of immunised animals (IL-6 ELISA kit); assay type: in vivo, mice; details: 4 hours after i.p. injection; 1W1K in Alum
[1] = BM chimeras (JHT + MyD88KO) lacking MyD88 signalling in B cells, added to IFA

Substance | 1W1K-specific Tfh cells in the dLN (1W1K-specific Tfh cells) | amount of 1W1K-specific CD4+ T cells (1W1K-specific Tfh cells) | total number of CD4+ T cells in the dLN (1W1K-specific Tfh cells) | enhancing effect on 1W1K-specific Tfh cells (1W1K-specific Tfh cells; [1]) | 1W1K-specific Tfh cell differentiation (1W1K-specific Tfh cells; added to Alum, i.p., JHT mice (no functional B cells), 5 days) | increase of 1W1K-specific Tfh response (1W1K-specific Tfh cells; chimeras (CD11c-DTR + MyD88KO), DTx: MyD88 signalling in CD11c+ cells impaired, FIG. 3B) | OVA-specific GC-B cells (OVA-specific B cells) | OVA-specific PC (OVA-specific B cells) | overall OVA-specific B cells (OVA-specific B cells) | enhancing effect on OVA-specific IgG (OVA-specific IgG; [1]) | circulating OVA-specific IgG (OVA-specific IgG; IFA supplemented with TLR agonist, 14 days, FIG. 2B) | IL-6 in the serum, sensitised JHT animals compared to sensitised wt mice (IL-6)
poly(I:C) | had no enhancing effect | did not statistically change | did not statistically change |  |  |  |  |  |  |  |  | 
lipopolysaccharide [LPS] | induced an increase | did not statistically change | did not statistically change | also observed | enhanced | not observed | increased | increased | increased | also observed | significant increase | significant decrease

Source: patent US20160193328A1, “Immunoadjuvant Compositions and uses Thereof” (INSERM (INSTITUT NATIONAL DE LA SANTÉ ET DE LA RECHERCHE …, priority 2013, published 2016)
